Common to all, as to format: cell-based
Data set [1] relates to syncytium formation by fusion of HeLa/CD4/LTR cells and HeLa135/env (T-tropic HIV-1)/Tat cells. Description: cells. To be noted: Human immunodeficiency virus 1, HeLa, read-out: IC50 of syncytium formation ability. As for the experimental part:
50 μl of HeLa/CD4 /LTR cell suspension prepared to 1.6×10^5 cells/ml was inoculated into every each well of 96 well plate (IWAKI MICROPLATE 96well), and 10 μl of the sample, diluted in a series of concentration with phosphate buffer physiological saline, was added to every each well. Then, 50 μl of HeLa135/env(envelope glycoprotein: originated from T-tropic HIV-1)/Tat cell suspension prepared to 1.6×10^5 cells/ml was dispensed to every well, and incubated in an incubator at 37° C. under 5% CO2 air current for 24 hours. After removal of the culture fluid from each well, 20 μl of cell lysis solution was added to every each well, and the plate was left at the room temperature for about 10 minutes.
Continuously, 100 μl of chromogenic substrate solution (Z-buffer: 80 μl+4 mg/ml o-nitrophenyl-β-D-glactopyranoside:20 μl) was added to each well, and reacted in the incubator at 37° C. […] After 80 minutes, 25 μl of reaction stop solution (2M Na2CO3) was added to it, and the absorbance at 405 nm was measured using colorimeter (Organ ON SystemMicrowell System Reader 510). Syncytium formation ability was calculated from the obtained absorbance by the following formula.
Syncytium formation ability=the absorbance of the well with sample addition/absorbance of control×100

Data set [2] can be described thus: Cytotoxicity on uninfected MT-4 cells, MTT method. Conditions: human, five days. As for the experimental part:
(§1) Anti-HIV activity was measured from suppression of cytopathic effect caused by HIV infection. The HIV infected MT-4 cell (2.5×10^4 cells/well, degree of multiple infection: 0.01) was added to 96 well titer plate immediately after infection. At the same time, K97-0003 peptide of various concentration was also added to the plate. In order to examine cytopathic effect of K97-0003 peptide on MT-4 cell, cells uninfected by HIV was incubated with K97-0003 peptide of various concentrations in the same manner. After five days of incubation at 37° C. in a CO2 incubator, the number of cell survived was measured by MTT method.
(2) CC50: It is the concentration of K97-0003 peptide that causes cytotoxicity to 50% of cells, and is the parameter of cytotoxic effect of the peptide.
(In general: Formazan colour is commonly taken as a measure of viable cells.)

In the next data set the test system is HIV infected MT-4 cell. The data set can be described thus: Anti-HIV activity by suppression of cytopathic effect, MTT method. To be noted: Human immunodeficiency virus 1, MT4, 120 h, read-out: BC50. The procedure:
as §1
(1) EC50: It is the concentration of K97-0003 peptide which inhibits 50% of the cytotoxicity by HIV infection, and is the parameter of anti-HIV activity of the peptide.
A general note: Damage to the host cells serves as the signal in cytopathic effect assays.

Each structure is given as a SMILES string. In brackets after ≈: the same amount, converted by molar mass. Some results are limits rather than exact numbers.

Broadly, the IC50 is the concentration needed to halve the response being measured. The CC50 is the concentration at which the toxic effect on the cells reaches its halfway point.

In the case of `CN1C(=O)[C@@H](c2cc(Cl)c(O)c(Cl)c2)NC(=O)[C@@H]2NC(=O)[C@@H](c3cc(Cl)c(O)c(Cl)c3)NC(=O)[C@H](NC(=O)C(=O)c3cc(Cl)c(O)c(Cl)c3)Cc3c[nH]c4c(cccc34)-c3cc2cc(c3O)Oc2ccc(cc2)C[C@H]1C(=O)N[C@@H](C(=O)O)c1ccc(O)cc1` [Chloropeptine, chloropeptin, reference compound], in data set [1], the half-inhibitory concentration (IC50) was 1.7 µg/mL (≈ 1.28 µM). In data set [2], the CC50 at 5 days was above 600000 nM. Further, the EC50 in the data set on HIV infected MT-4 cell is 1600 nM.

(Values after US6482412B1, “Polypeptide having human HIV inhibitory activity, a gene encoding the polypeptide, a method to produce the polypeptide” (Gakkou Houjin Kitasato Gakuen, priority 1999, dated 2002).)
